From ChEMBL document CHEMBL1201862, “PubChem BioAssay data set” (2004)
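A five-concentration, 48-hour dose response in 96-well plates underlies each endpoint, interpolated linearly between surrounding concentrations. Here, GI50 denotes the concentration required for 50% inhibition of growth.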 Calls of active or inactive are those of the source. Cut-off read from the data, not from the text of the source: active = GI50 up to about 1.1 µM and inactive = higher.

Tests used:
Experiment in all cases: NCI-60 cell line screen, 48 h
ACHN = tested on: ACHN
EKVX = tested on: EKVX
SK-MEL-2 = tested on: SK-MEL-2
HOP-62 = tested on: HOP-62
LOX IMVI = tested on: LOX IMVI
DMS-273 = tested on: DMS-273
HCT-116 = tested on: HCT-116
HT-29 = tested on: HT-29
IGROV-1 = tested on: IGROV-1
OVCAR-5 = tested on: OVCAR-5
HL-60 = tested on: HL-60
NCI-H226 = tested on: NCI-H226
A549 = tested on: A549
UACC-62 = tested on: UACC-62
OVCAR-4 = tested on: OVCAR-4
MDA-N = tested on: MDA-N
Hs-578T = tested on: Hs-578T
MDA-MB-435 = tested on: MDA-MB-435
DU-145 = tested on: DU-145
MDA-MB-231 = tested on: MDA-MB-231

Compound | GI50 (ACHN) | GI50 (EKVX) | GI50 (SK-MEL-2) | GI50 (HOP-62) | GI50 (LOX IMVI) | GI50 (DMS-273) | GI50 (HCT-116) | GI50 (HT-29) | GI50 (IGROV-1) | GI50 (OVCAR-5) | GI50 (HL-60) | GI50 (NCI-H226) | GI50 (A549) | GI50 (UACC-62) | GI50 (OVCAR-4) | GI50 (MDA-N) | GI50 (Hs-578T) | GI50 (MDA-MB-435) | GI50 (DU-145) | GI50 (MDA-MB-231)
Cc1cccc(/N=C/c2ccc(N(CCC#N)S(=O)(=O)c3ccccc3)cc2C)c1 | 88.3 µM (inactive) | > 100 µM (inactive) | > 100 µM (inactive) | > 100 µM (inactive) | 17.6 µM (inactive) | > 100 µM (inactive) | > 100 µM (inactive) | > 100 µM (inactive) | > 100 µM (inactive) | > 100 µM (inactive) | 21.9 µM (inactive) | 20.7 µM (inactive) | > 100 µM (inactive) | 26.1 µM (inactive) | > 100 µM (inactive) | – | – | – | – | –
C[C@]12CC[C@H](OCCC#N)CC1=CC[C@@H]1C2CC[C@]2(C)/C(=N/OCCC#N)CCC12 (some centres undefined) | 16.7 µM (inactive) | > 94.8 µM (inactive) | > 50.2 µM (inactive) | > 69.2 µM (inactive) | 5.7 µM (inactive) | 42.2 µM (inactive) | > 21 µM (inactive) | – | > 100 µM (inactive) | > 100 µM (inactive) | 2.48 µM (inactive) | > 100 µM (inactive) | 31.3 µM (inactive) | 21.9 µM (inactive) | 29 µM (inactive) | – | – | – | – | –
COc1ccc(/N=N/c2c(-c3ccccc3)nn(C(=O)CC(=O)Nc3cccc(Cl)c3)c2-c2ccccc2)cc1 | > 100 µM (inactive) | 29.4 µM (inactive) | > 100 µM (inactive) | 24.2 µM (inactive) | > 100 µM (inactive) | > 100 µM (inactive) | 45.6 µM (inactive) | > 100 µM (inactive) | > 100 µM (inactive) | 61.2 µM (inactive) | > 100 µM (inactive) | 4.82 µM (inactive) | 32.3 µM (inactive) | > 100 µM (inactive) | 67.9 µM (inactive) | – | – | – | – | –
Cc1[nH]c2ccccc2c1C(=O)/C=C/c1ccccc1O | > 100 µM (inactive) | > 100 µM (inactive) | > 100 µM (inactive) | > 100 µM (inactive) | > 100 µM (inactive) | > 100 µM (inactive) | > 100 µM (inactive) | > 100 µM (inactive) | > 100 µM (inactive) | > 100 µM (inactive) | > 100 µM (inactive) | > 10 µM (inactive) | > 100 µM (inactive) | > 100 µM (inactive) | > 100 µM (inactive) | – | – | – | – | –
CC[C@@]1(OC(=O)C(N)CCCCN)C(=O)OCc2c1cc1n(c2=O)Cc2cc3ccccc3nc2-1 (some centres undefined) | 0.0135 µM (active) | 0.753 µM (active) | 0.5 µM (active) | < 0.0148 µM (active) | 0.0171 µM (active) | < 0.01 µM (active) | 0.0415 µM (active) | 0.133 µM (active) | 0.212 µM (active) | 0.238 µM (active) | < 0.0132 µM (active) | 0.111 µM (active) | 0.0274 µM (active) | < 0.0128 µM (active) | 0.332 µM (active) | 0.167 µM (active) | 4.52 µM (inactive) | 0.293 µM (active) | < 0.0199 µM (active) | 1.53 µM (inactive)
C=CCC1(CN(C)C)CC/C(=C\c2ccc(Cl)cc2)C1=O (centres undefined) | 44.8 µM (inactive) | 38.9 µM (inactive) | > 100 µM (inactive) | > 100 µM (inactive) | 23.8 µM (inactive) | 24.7 µM (inactive) | 19.9 µM (inactive) | 24.1 µM (inactive) | 29.2 µM (inactive) | > 77.4 µM (inactive) | 29.9 µM (inactive) | 96.8 µM (inactive) | 59.6 µM (inactive) | 49.9 µM (inactive) | 31 µM (inactive) | – | – | – | – | –
CN(C)CCNC(=O)c1cccc2cc3ccc4ccccc4c3nc12 | 0.0276 µM (active) | 0.145 µM (active) | 0.203 µM (active) | 0.0957 µM (active) | 0.0502 µM (active) | 0.0224 µM (active) | 0.0294 µM (active) | 0.0516 µM (active) | 0.105 µM (active) | 0.214 µM (active) | 0.0336 µM (active) | 0.112 µM (active) | 0.0226 µM (active) | 0.0776 µM (active) | 0.115 µM (active) | – | – | – | – | –
Cc1ccc(S(=O)(=O)N/N=C(\c2nc3ccc([N+](=O)[O-])cc3nc2O)C(O)c2ccccc2Cl)cc1 (centres undefined) | > 100 µM (inactive) | > 100 µM (inactive) | > 100 µM (inactive) | > 100 µM (inactive) | > 100 µM (inactive) | > 100 µM (inactive) | > 100 µM (inactive) | > 100 µM (inactive) | > 100 µM (inactive) | > 100 µM (inactive) | 27.5 µM (inactive) | > 100 µM (inactive) | > 100 µM (inactive) | 86.9 µM (inactive) | > 100 µM (inactive) | – | – | – | – | –
COC(=O)CCSC(=O)Nc1ccccc1Cl | > 100 µM (inactive) | > 100 µM (inactive) | > 100 µM (inactive) | > 100 µM (inactive) | > 100 µM (inactive) | > 100 µM (inactive) | > 100 µM (inactive) | > 100 µM (inactive) | – | > 100 µM (inactive) | 63.1 µM (inactive) | > 100 µM (inactive) | > 100 µM (inactive) | > 100 µM (inactive) | > 100 µM (inactive) | – | – | – | – | –
Cc1ccc(/C=N/NS(=O)(=O)c2ccccc2)cc1 | > 100 µM (inactive) | > 100 µM (inactive) | > 100 µM (inactive) | > 100 µM (inactive) | > 100 µM (inactive) | > 100 µM (inactive) | > 100 µM (inactive) | > 100 µM (inactive) | > 100 µM (inactive) | > 100 µM (inactive) | > 100 µM (inactive) | > 100 µM (inactive) | > 100 µM (inactive) | > 100 µM (inactive) | > 100 µM (inactive) | – | – | – | – | –
CC1(C)C(O)OC(O)C1(C)C (centres undefined) | > 100 µM (inactive) | > 100 µM (inactive) | 89.7 µM (inactive) | > 100 µM (inactive) | 46.9 µM (inactive) | 70.5 µM (inactive) | 33.9 µM (inactive) | 62.4 µM (inactive) | > 100 µM (inactive) | > 100 µM (inactive) | 42.9 µM (inactive) | 18.1 µM (inactive) | > 100 µM (inactive) | 91 µM (inactive) | > 100 µM (inactive) | – | – | – | – | –
COC1(C)C(=O)N2C1N(C(=O)OCc1ccccc1)CC2(C)C (centres undefined) | > 100 µM (inactive) | > 100 µM (inactive) | > 100 µM (inactive) | > 100 µM (inactive) | > 100 µM (inactive) | > 100 µM (inactive) | > 100 µM (inactive) | > 100 µM (inactive) | > 100 µM (inactive) | – | > 100 µM (inactive) | > 100 µM (inactive) | > 100 µM (inactive) | > 100 µM (inactive) | > 100 µM (inactive) | – | – | – | – | –
CCOC(=O)C(C)(C)Oc1ccc2c(C)c(-c3ccc(Cl)cc3)c(=O)oc2c1 | 98.6 µM (inactive) | 70.3 µM (inactive) | > 100 µM (inactive) | 89.1 µM (inactive) | 34.9 µM (inactive) | 37.6 µM (inactive) | 43 µM (inactive) | 20.7 µM (inactive) | 75.9 µM (inactive) | – | 18.2 µM (inactive) | 14.9 µM (inactive) | 37.6 µM (inactive) | 32.5 µM (inactive) | > 100 µM (inactive) | – | – | – | – | –
COc1ccc(C(c2ccc(C(C)C)cc(OC)c2=O)c2ccc(C(C)C)cc(OC)c2=O)cc1 | – | 13.6 µM (inactive) | 15.9 µM (inactive) | 21 µM (inactive) | 15.3 µM (inactive) | 14.8 µM (inactive) | 11.1 µM (inactive) | 10.8 µM (inactive) | – | 20.1 µM (inactive) | 12.2 µM (inactive) | 18.1 µM (inactive) | 12 µM (inactive) | 14.8 µM (inactive) | 12.2 µM (inactive) | – | – | – | – | –
Nc1ccn([C@@H]2C=C(CO)[C@@H](O)[C@H]2O)c(=O)n1 | 0.0559 µM (active) | 0.562 µM (active) | 10 µM (inactive) | 0.102 µM (active) | 0.0667 µM (active) | 0.256 µM (active) | 0.05 µM (active) | 0.11 µM (active) | 0.108 µM (active) | 1.48 µM (inactive) | 0.05 µM (active) | 5.53 µM (inactive) | 0.0592 µM (active) | 0.227 µM (active) | 0.216 µM (active) | 0.0353 µM (active) | 2.24 µM (inactive) | 0.05 µM (active) | 0.0261 µM (active) | 0.467 µM (active)
